From PMC9551036, “A selective and orally bioavailable VHL-recruiting PROTAC achieves SMARCA2 degradation in vivo” (Nature Communications, 2022)
Several values for one entry are separate records, joined by “and”; a condition that tells them apart may be missing. Identical values can stand only once. Like-named read-outs stand apart in the source and are kept apart here.

Assays:
[1] = target: T1, VCB: PROTAC: SMARCA2^BD ternary complex (Homo sapiens, UniProt P51531); assay: TR-FRET ternary complex affinity and cooperativity, SMARCA2; assay type: binding
T1 construct: P51531-2, residues 1373-1493 with additional N-terminal SM residues; GST (TEV site) (N); His6 (TEV site) (N, cleaved yes); made in house; host or cells: SMARCA2^BD: Escherichia coli BL21(DE3)
T1 sequence (P51531 with tags, fused parts or gaps isoform P51531-2): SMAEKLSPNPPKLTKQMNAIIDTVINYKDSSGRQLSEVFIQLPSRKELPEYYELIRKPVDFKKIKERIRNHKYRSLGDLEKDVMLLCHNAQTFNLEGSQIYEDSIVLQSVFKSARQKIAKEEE

[2] = target: T2, (Homo sapiens, UniProt P51532); assay: TR-FRET ternary complex affinity and cooperativity, SMARCA4; assay type: binding
T2 construct: P51532, residues 1448–1569 with additional N-terminal SM residues; GST (TEV site) (N); His6 (TEV site) (N, cleaved yes); made in house; host or cells: SMARCA4^BD: Escherichia coli BL21(DE3)
T2 sequence (P51532 1448-1569): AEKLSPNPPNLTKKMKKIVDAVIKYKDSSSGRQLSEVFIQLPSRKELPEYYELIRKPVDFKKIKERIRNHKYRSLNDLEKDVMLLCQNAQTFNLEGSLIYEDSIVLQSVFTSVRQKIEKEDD

NCI-H1568 cells = assay: Cell viability assay (CellTiter Glo) in NCI-H1568; assay type: cell-based, human
In short: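 NCI-H1568 cells, 500–2000 per well, were plated in 180–200 µl of medium in white 96-well plates with clear bottoms (Corning or Perkin Elmer). One day later a digital dispenser added the compounds, and a T0 reference sample was read. Viability was then determined by luminescence with CellTiter Glo or CellTiter Glo 2.0 (Promega).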

PBRM1 BD = target: T3, PBRM1 BD (Homo sapiens, UniProt Q86U86); assay: TR-FRET binary and ternary (PROTAC + VCB) affinity, PBRM1 bromodomain; assay type: binding; details: individual replicates
T3 construct: GST (TEV site) (N); made in house; host or cells: Escherichia coli BL21(DE3)

SMARCA4 = SMARCA4 (Homo sapiens, UniProt P51532); assay: SMARCA4 capillary electrophoresis protein assay in RKO cells; assay type: cell-based; set-up: endogenous in cells; host or cells: RKO, HCT116, LU99, HCC-364, HCT-15, HCC4006, SK-N-AS; details: mean ± SD
Sequence of SMARCA4 (P51532 whole entry): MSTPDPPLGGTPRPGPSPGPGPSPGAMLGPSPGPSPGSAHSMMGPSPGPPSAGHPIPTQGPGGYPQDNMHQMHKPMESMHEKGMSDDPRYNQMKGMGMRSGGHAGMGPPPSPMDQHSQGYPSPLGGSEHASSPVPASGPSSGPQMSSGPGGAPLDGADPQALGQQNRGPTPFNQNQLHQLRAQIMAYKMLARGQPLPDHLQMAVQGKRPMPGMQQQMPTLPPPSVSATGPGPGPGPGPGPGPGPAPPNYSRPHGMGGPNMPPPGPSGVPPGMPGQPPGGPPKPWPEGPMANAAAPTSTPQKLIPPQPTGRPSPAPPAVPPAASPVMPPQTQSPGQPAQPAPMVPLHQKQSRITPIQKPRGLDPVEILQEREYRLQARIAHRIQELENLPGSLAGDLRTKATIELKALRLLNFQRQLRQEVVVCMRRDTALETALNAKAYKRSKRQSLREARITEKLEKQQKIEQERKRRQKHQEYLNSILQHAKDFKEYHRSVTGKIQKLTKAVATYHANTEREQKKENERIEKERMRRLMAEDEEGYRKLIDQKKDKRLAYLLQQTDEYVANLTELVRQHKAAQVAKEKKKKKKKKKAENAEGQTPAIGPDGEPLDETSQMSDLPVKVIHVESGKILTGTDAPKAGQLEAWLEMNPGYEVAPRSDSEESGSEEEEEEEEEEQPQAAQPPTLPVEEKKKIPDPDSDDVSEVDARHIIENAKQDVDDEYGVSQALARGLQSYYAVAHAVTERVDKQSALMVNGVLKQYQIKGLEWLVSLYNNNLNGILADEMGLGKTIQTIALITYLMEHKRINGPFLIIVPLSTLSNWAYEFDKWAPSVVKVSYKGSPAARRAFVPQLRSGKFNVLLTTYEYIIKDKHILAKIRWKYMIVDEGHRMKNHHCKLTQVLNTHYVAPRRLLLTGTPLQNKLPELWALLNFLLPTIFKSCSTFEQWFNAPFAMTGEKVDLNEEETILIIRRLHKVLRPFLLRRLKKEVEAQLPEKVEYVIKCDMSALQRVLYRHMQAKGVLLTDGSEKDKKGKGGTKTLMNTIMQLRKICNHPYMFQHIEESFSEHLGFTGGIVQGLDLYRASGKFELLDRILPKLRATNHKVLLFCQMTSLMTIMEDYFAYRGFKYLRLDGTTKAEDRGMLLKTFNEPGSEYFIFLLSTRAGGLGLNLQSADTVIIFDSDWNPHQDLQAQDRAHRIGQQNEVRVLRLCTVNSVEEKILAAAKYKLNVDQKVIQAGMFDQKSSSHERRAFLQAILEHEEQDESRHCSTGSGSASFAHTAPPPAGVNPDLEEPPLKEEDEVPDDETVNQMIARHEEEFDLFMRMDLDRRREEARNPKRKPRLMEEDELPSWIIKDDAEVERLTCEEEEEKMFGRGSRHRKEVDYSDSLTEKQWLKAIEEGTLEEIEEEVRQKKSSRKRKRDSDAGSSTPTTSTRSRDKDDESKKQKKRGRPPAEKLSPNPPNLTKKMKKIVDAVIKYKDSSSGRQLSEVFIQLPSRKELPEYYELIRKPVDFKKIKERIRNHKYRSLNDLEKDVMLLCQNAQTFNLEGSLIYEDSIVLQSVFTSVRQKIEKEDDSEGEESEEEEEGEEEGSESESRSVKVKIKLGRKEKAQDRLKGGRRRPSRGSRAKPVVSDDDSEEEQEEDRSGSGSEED
In short: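 Cells were treated with compound for 4 or 18 h. Half-life was followed with 50 µg/ml cycloheximide for 1–24 h, and re-synthesis with 100 nM compound 6 for 4 h, then VHL binder at 25 or 50 µM for 3 or 24 h. SMARCA2/4 was quantified by Wes capillary immunoassay, normalised to GAPDH, with 4-parameter logistic fits.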

[3] = target: VCB: PROTAC: SMARCA2^BD ternary complex (Homo sapiens, UniProt P40337+P51531); assay: TR-FRET ternary complex affinity and cooperativity, SMARCA2; assay type: binding; set-up: P51531-2, residues 1373-1493 with additional N-terminal SM residues; GST (TEV site) (N); His6 (TEV site) (N, cleaved yes); made in house; host or cells: SMARCA2^BD: Escherichia coli BL21(DE3)
Sequence of VCB: PROTAC: SMARCA2^BD ternary complex (Homo sapiens, UniProt P40337+P51531) (P51531 with tags, fused parts or gaps isoform P51531-2): as the sequence (P51531 with tags, fused parts or gaps isoform P51531-2) above
Sequence of VCB: PROTAC: SMARCA2^BD ternary complex (Homo sapiens, UniProt P40337+P51531) (P40337 54-213): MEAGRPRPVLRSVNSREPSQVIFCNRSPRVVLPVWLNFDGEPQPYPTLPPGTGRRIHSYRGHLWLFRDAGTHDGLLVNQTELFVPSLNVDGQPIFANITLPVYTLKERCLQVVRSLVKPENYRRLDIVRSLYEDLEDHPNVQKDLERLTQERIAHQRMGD
Sequence of VCB: PROTAC: SMARCA2^BD ternary complex (Homo sapiens, UniProt P40337+P51531) (Q15369 17-112 partner): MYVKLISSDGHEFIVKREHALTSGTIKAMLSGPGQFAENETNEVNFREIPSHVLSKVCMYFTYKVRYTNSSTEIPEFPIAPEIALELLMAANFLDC
Sequence of VCB: PROTAC: SMARCA2^BD ternary complex (Homo sapiens, UniProt P40337+P51531) (Q15370 1-104 partner): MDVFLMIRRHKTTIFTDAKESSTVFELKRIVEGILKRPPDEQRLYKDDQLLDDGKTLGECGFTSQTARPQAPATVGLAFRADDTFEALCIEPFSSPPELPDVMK

Cc1ncsc1-c1ccc(CNC(=O)[C@@H]2C[C@@H](O)CN2C(=O)[C@@H](NC(=O)C2(F)CC2)C(C)(C)C)c(OCCOCCOCCOCCN2CCC(c3ccc4c(c3)n(C3CCCC3)c3nc(=O)c5c(Br)cccc5n43)CC2)c1 [compound 22]
EC50 ([1]; TR-FRET competition for SMARCA2BD, without VCB, mean ± SD, read-out: TR-FRET SMARCA2BD EC50): 274 ± 41 nM | EC50 ([1]; binary, PROTAC alone, individual replicates, read-out: SMARCA2 BD EC50): 242 nM and 328 nM and 288 nM and 245 nM | EC50 ([2]; TR-FRET competition for SMARCA4BD, without VCB, mean ± SD, read-out: TR-FRET SMARCA4BD EC50): 813 ± 126 nM | EC50 ([2]; binary, PROTAC alone, individual replicates, read-out: SMARCA4 BD EC50): 659 nM and 965 nM and 837 nM and 819 nM | EC50 (NCI-H1568 cells; NCI-H1568 ([…]), mean ± SD, read-out: EC50 cell proliferation (CellTiter Glo)): 187 ± 76 nM | IC50 (NCI-H1568 cells; NCI-H1568, (18h), CellTiter Glo, individual replicates, read-out: NCI-H1568 (18h) CTG): 280 nM and 175 nM and 133 nM | EC50 (PBRM1 BD; PROTAC + VCB, read-out: Ternary PBRM1 BD EC50 (PROTAC + VCB)): 33.2 nM and 39.2 nM and 42.6 nM | EC50 (PBRM1 BD; binary, PROTAC alone, read-out: PBRM1 EC50): 84.2 nM and 107 nM and 111 nM (2×) | DC50 (SMARCA4; RKO (4 h)): 54 ± 47 nM | SMARCA4 Dmax (SMARCA4; RKO (4 h)): 84 ± 1% | DC50 (SMARCA4; RKO (18 h)): 77 ± 67 nM | SMARCA4 Dmax (SMARCA4; RKO (18 h)): 89 ± 5% | EC50 ([3]; PROTAC + VCB, individual replicates, read-out: Ternary SMARCA2 BD EC50 (PROTAC + VCB)): 95.1 nM and 86.8 nM and 90.2 nM and 144 nM | EC50 ([3]; TR-FRET competition for SMARCA2BD, + VCB, mean ± SD, read-out: TR-FRET Ternary SMARCA2BD EC50 (PROTAC + VCB)): 102 ± 27 nM
